{
  "source": "patent US20250339409A1",
  "about": "“USES OF PAN BET INHIBITORS” (VYNE THERAPEUTICS INC., priority 2021, published 2025)",
  "key": {"[1]": {"test_system": "E-cadherin", "test": "RHE vitiligo model: E-cadherin secretion by ELISA", "assay_type": "cell-based, human", "conditions": "for E-Cad (% stimulated ctl) Mean / E-Cad (% stimulated ctl): TNF-α/IFN-γ stimulated RHE; for E-Cad (% stimulated ctl) Mean / E-Cad (% stimulated ctl) / Mean conc E-Cad / Conc E-Cad: 48 h; for E-Cad (% stimulated ctl) / Conc E-Cad: replicates N1-N3; for Mean conc E-Cad / Conc E-Cad: culture medium of RHE, TNF-α 12 ng/ml/IFN-γ 12 ng/ml; for E-Cadherin secretion: RHE stimulated with TNF-α/IFN-γ", "procedure": "(§1) […] Three epidermis samples per condition are fixed in 4% formaldehyde solution and embedded in paraffin for further analysis (morphology analysis, melanin and melanocytes localisation/quantification). Three other epidermis samples per condition are put in a specific lysis buffer for total RNA extraction.\n(§2) At the end of the treatments, culture media is collected (from 3 epidermis per condition), aliquoted and stored at −20° C. until use in ELISA assays. The quantity of MMP-9 secreted by the epidermis at the end of the treatments is analysed using the human MMP-9 Quantikine ELISA kit (Bio-Techne; DMP900). The secretion of E-cadherin in culture media is measured using to human E-cadherin Quantikine ELISA kit (Bio-Techne; DCADE0) dedicated for the measurement of natural human E-cadherin in culture supernates, serum, plasma, urine, and saliva.\n(§3) The ELISAs are performed following the instructions of the supplier. The quantities of MMP-9 and E-cadherin are determined by comparisons with standard curves performed with recombinant human MMP-9 or E-cadherin provided in the kits.\n(§4) Quantification of secretion of MMP-9 and E-cadherin by ELISA from collected culture medium was conducted in accordance with Method E. The results, shown in FIG. 5A and FIG. 5B are based on Tables 23 and 24 respectively and presented in percentage of release in comparison to the stimulated control. A statistical analysis (student t-test) was performed to compare the effects of the treatments with the formulations to the vehicle (with $: 0.05>p>0.01; $$: 0.01>p>0.001; and $$$: p<0.001). The same analysis was performed to compare the effects of the vehicle and of the unstimulated control to the stimulated control (with *: 0.05>p>0.01; **: 0.01>p>0.001; and ***: p<0.001). The analysis was performed from three replicates per condition (n=3). The mean of the three values and the standard deviation are presented on the histograms in FIG. 5A and FIG. 5B. As shown in Table 21 and FIG. 5A and consistent with the results of Part A, MMP-9 secretion was increased following the stimulation with the cytokines, which validates the assay."}, "[2]": {"test_system": "MMP-9", "test": "RHE vitiligo model: MMP-9 secretion by ELISA", "assay_type": "cell-based, human", "conditions": "for reduction in secreted MMP-9: 1% treatment, vs stimulated/untreated control or vehicle; for MMP-9 (% stimulated ctl) Mean / MMP-9 (% stimulated ctl): TNF-α/IFN-γ stimulated RHE; for MMP-9 (% stimulated ctl) Mean / MMP-9 (% stimulated ctl) / Mean conc MMP-9 / Conc MMP-9: 48 h; for MMP-9 (% stimulated ctl) / Conc MMP-9: replicates N1-N3; for Mean conc MMP-9 / Conc MMP-9: culture medium of RHE, TNF-α 12 ng/ml/IFN-γ 12 ng/ml", "procedure": "as §1, §2, §3, §4"}, "[3]": {"test_system": "reconstituted human epidermis stimulated with TNF-α and IFN-γ", "test": "Reconstituted human epidermis (RHE) vitiligo model: morphological analysis after H/E staining", "assay_type": "cell-based", "conditions": "topical on RHE, 48 h", "procedure": "To generate the morphological and functional aspects of vitiligo, in vitro reconstituted epidermis with Normal Human Epidermal Keratinocytes (NHEK) and Normal Human Epidermal Melanocytes, darkly pigmented (NHEM-DP) are exposed to a cytokine cocktail (TNF-α and IFN-γ). The cytokine cocktail is applied during 48 hours in the culture medium of epidermis. NHEK are isolated from the fore skin of 3 Caucasian donors, and NHEM-DP are isolated from 1 donor. The tissues are cultured at the air-liquid interface in Epilife medium (Fisher Scientific, M-EPI-500-A) containing supplements and antibiotics (Gentamycin, Fisher Scientific, 15710-049). […] Three epidermis samples per condition are fixed in 4% formaldehyde solution and embedded in paraffin for further analysis (morphology analysis, melanin and melanocytes localisation/quantification). […] The tissue morphology is analyzed through a Hematoxylin/Eosin (H/E) staining. […] Formulations containing four doses of BETi1, the BETi1 vehicle (placebo) and JAK inhibitor, were evaluated in RHE TNF-α/IFN-γ vitiligo model as described in Experimental section Methods C and D and representative images of H/E stained epidermis sections are shown in FIG. 4A-H. Treatments of the RHEs with each of the formulations were initiated at day 9 of their reconstitution process. […]"}},
  "note": "Several values for one entry are separate records, joined by “and”; a condition that tells them apart may be missing. Equal entries are not always repeated.",
  "data": [
    {"smiles": "Cn1cc(-c2cccc(O)c2Oc2ccccc2)c2cc[nH]c2c1=O", "note": "[BETi1]", "values": [
      {"measurement": "E-Cad (% stimulated ctl) Mean", "setting": "[1]; BETi1 0.001%", "value": 138, "unit": "%"},
      {"measurement": "E-Cad (% stimulated ctl)", "setting": "[1]; BETi1 0.001%", "value": "129% (2×) and 156%"},
      {"measurement": "Mean conc E-Cad", "setting": "[1]; BETi1 0.001%", "value": 3.2, "unit": "ng/mL"},
      {"measurement": "Conc E-Cad", "setting": "[1]; BETi1 0.001%", "value": "3.0 ng/ml (2×) and 3.6 ng/ml"},
      {"measurement": "E-Cad (% stimulated ctl) Mean", "setting": "[1]; BETi1 0.01%", "value": 118, "unit": "%"},
      {"measurement": "E-Cad (% stimulated ctl)", "setting": "[1]; BETi1 0.01%", "value": "117% and 109% and 128%"},
      {"measurement": "Mean conc E-Cad", "setting": "[1]; BETi1 0.01%", "value": 2.7, "unit": "ng/mL"},
      {"measurement": "Conc E-Cad", "setting": "[1]; BETi1 0.01%", "value": "2.7 ng/mL and 2.5 ng/mL and 2.9 ng/mL"},
      {"measurement": "E-Cad (% stimulated ctl) Mean", "setting": "[1]; BETi1 0.1%", "value": 59, "unit": "%"},
      {"measurement": "E-Cad (% stimulated ctl)", "setting": "[1]; BETi1 0.1%", "value": "61% and 56% and 62%"},
      {"measurement": "Mean conc E-Cad", "setting": "[1]; BETi1 0.1%", "value": 1.4, "unit": "ng/mL"},
      {"measurement": "Conc E-Cad", "setting": "[1]; BETi1 0.1%", "value": "1.4 ng/ml (2×) and 1.3 ng/ml"},
      {"measurement": "E-Cad (% stimulated ctl) Mean", "setting": "[1]; BETi1 1%", "value": 72, "unit": "%"},
      {"measurement": "E-Cad (% stimulated ctl)", "setting": "[1]; BETi1 1%", "value": "71% and 72% and 74%"},
      {"measurement": "Mean conc E-Cad", "setting": "[1]; BETi1 1%", "value": 1.7, "unit": "ng/mL"},
      {"measurement": "Conc E-Cad", "setting": "[1]; BETi1 1%", "value": "1.6 ng/ml and 1.7 ng/ml (2×)"},
      {"measurement": "E-Cadherin secretion", "setting": "[1]; listed as 1% BETi1", "value": "about 118%"},
      {"measurement": "E-Cadherin secretion", "setting": "[1]; listed as BETi1 0.1%", "value": 59, "unit": "%"},
      {"measurement": "reduction in secreted MMP-9", "setting": "[2]", "value": "~95", "unit": "%"},
      {"measurement": "reduction in secreted MMP-9", "setting": "[2]; listed as BETi1 1%", "value": "> 95", "unit": "%"},
      {"measurement": "reduction in secreted MMP-9", "setting": "[2]; listed as BETi 1%", "value": "about 94.7%"},
      {"measurement": "MMP-9 (% stimulated ctl) Mean", "setting": "[2]; BETi1 0.001%", "value": 137, "unit": "%"},
      {"measurement": "MMP-9 (% stimulated ctl)", "setting": "[2]; BETi1 0.001%", "value": "140% and 138% and 134%"},
      {"measurement": "Mean conc MMP-9", "setting": "[2]; BETi1 0.001%", "value": 24.1, "unit": "ng/mL"},
      {"measurement": "Conc MMP-9", "setting": "[2]; BETi1 0.001%", "value": "24.5 ng/mL and 24.1 ng/mL and 23.5 ng/mL"},
      {"measurement": "MMP-9 (% stimulated ctl) Mean", "setting": "[2]; BETi1 0.01%", "value": 113, "unit": "%"},
      {"measurement": "MMP-9 (% stimulated ctl)", "setting": "[2]; BETi1 0.01%", "value": "113% and 104% and 122%"},
      {"measurement": "Mean conc MMP-9", "setting": "[2]; BETi1 0.01%", "value": 19.8, "unit": "ng/mL"},
      {"measurement": "Conc MMP-9", "setting": "[2]; BETi1 0.01%", "value": "19.9 ng/mL and 18.2 ng/mL and 21.4 ng/mL"},
      {"measurement": "MMP-9 (% stimulated ctl) Mean", "setting": "[2]; BETi1 0.1%", "value": 10, "unit": "%"},
      {"measurement": "MMP-9 (% stimulated ctl)", "setting": "[2]; BETi1 0.1%", "value": "9% (2×) and 12%"},
      {"measurement": "Mean conc MMP-9", "setting": "[2]; BETi1 0.1%", "value": 1.7, "unit": "ng/mL"},
      {"measurement": "Conc MMP-9", "setting": "[2]; BETi1 0.1%", "value": "1.5 ng/mL and 2.0 ng/mL and 1.6 ng/mL"},
      {"measurement": "MMP-9 (% stimulated ctl) Mean", "setting": "[2]; BETi1 1%", "value": 5, "unit": "%"},
      {"measurement": "MMP-9 (% stimulated ctl)", "setting": "[2]; BETi1 1%", "value": "5% (2×) and 6%"},
      {"measurement": "Mean conc MMP-9", "setting": "[2]; BETi1 1%", "value": 0.9, "unit": "ng/mL"},
      {"measurement": "Conc MMP-9", "setting": "[2]; BETi1 1%", "value": "0.9 ng/mL and 1.1 ng/mL and 0.8 ng/mL"},
      {"measurement": "morphological alteration of RHE (H/E staining)", "setting": "[3]", "value": "did not induce any morphological alteration"}
    ]}
  ]
}
